The source made the active and inactive calls. No cut-off for these calls is given here.
How the values were obtained:
[1] = biological target: RAC-alpha serine/threonine-protein kinase (Homo sapiens) (UniProt P31749); details: GISTT1, 0.1 uM
Description: Inhibition of AKT autophosphorylation at T308 residue in human GISTT1 cells harboring c-KIT 560 to 578 deletion mutant at 0.1 uM measured after 2 hrs by Western blot analysis

[2] = biological target: RAC-alpha serine/threonine-protein kinase (Homo sapiens) (UniProt P31749); details: GISTT1, 0.1 uM; remark: listed apart in the source
Description: Inhibition of AKT autophosphorylation at T308 residue in human GISTT1 cells harboring c-KIT 560 to 578 deletion/T670I mutant at 0.1 uM measured after 2 hrs by Western blot analysis

[3] = tested on: Mast/stem cell growth factor receptor Kit (Homo sapiens), P10721 [UNDEFINED MUTATION]; details: GISTT1, 0.1 uM
Chain of Mast/stem cell growth factor receptor Kit (Homo sapiens), P10721 [UNDEFINED MUTATION] (P10721 whole entry, looked up, change not shown): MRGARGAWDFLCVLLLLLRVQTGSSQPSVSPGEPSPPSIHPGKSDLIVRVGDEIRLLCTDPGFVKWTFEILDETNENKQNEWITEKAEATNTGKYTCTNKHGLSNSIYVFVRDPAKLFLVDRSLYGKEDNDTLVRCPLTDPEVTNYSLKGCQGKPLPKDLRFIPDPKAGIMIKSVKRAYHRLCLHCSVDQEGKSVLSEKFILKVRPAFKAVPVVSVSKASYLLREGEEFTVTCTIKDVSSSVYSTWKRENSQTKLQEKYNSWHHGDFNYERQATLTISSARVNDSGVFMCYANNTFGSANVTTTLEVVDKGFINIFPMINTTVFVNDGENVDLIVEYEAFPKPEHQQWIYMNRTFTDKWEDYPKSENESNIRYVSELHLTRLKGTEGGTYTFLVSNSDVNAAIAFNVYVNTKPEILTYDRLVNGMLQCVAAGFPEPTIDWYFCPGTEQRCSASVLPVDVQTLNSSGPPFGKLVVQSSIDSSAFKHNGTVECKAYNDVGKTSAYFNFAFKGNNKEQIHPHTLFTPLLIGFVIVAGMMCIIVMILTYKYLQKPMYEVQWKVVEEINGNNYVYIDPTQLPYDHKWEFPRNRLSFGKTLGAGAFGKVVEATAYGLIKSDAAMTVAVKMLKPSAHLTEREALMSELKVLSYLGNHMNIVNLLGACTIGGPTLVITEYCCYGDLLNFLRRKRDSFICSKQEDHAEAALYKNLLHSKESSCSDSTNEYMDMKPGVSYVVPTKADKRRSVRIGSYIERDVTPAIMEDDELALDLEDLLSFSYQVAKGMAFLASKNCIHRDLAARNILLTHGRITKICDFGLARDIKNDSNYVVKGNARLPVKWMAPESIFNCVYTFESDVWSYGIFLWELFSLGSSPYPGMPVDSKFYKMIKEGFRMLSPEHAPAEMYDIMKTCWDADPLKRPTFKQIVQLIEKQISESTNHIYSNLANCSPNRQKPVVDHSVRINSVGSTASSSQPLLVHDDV
Description: Inhibition of c-KIT 560 to 578 deletion mutant in human GISTT1 cells assessed as reduction in c-KIT autophosphorylation at Y703 residue at 0.1 uM measured after 2 hrs by Western blot analysis

[4] = tested on: Mast/stem cell growth factor receptor Kit (Homo sapiens), P10721 [UNDEFINED MUTATION]; details: GISTT1, 0.1 uM; remark: listed apart in the source
Description: Inhibition of c-KIT 560 to 578 deletion/T670I mutant in human GISTT1 cells assessed as reduction in c-KIT autophosphorylation at Y719 residue at 0.1 uM measured after 2 hrs by Western blot analysis

[5] = tested on: Mast/stem cell growth factor receptor Kit (Homo sapiens), P10721 [UNDEFINED MUTATION]; details: 0.1 uM
Description: Inhibition of c-KIT 560 to 578 deletion/T670I mutant in human GIST5R cells assessed as reduction in c-KIT autophosphorylation at Y719 residue at 0.1 uM measured after 2 hrs by Western blot analysis

[6] = tested on: Mast/stem cell growth factor receptor Kit (Homo sapiens), P10721 [UNDEFINED MUTATION]; details: GISTT1, 0.1 uM; remark: listed apart in the source
Description: Inhibition of c-KIT 560 to 578 deletion mutant in human GISTT1 cells assessed as reduction in AKT phosphorylation at T308 residue at 0.1 uM measured after 2 hrs by Western blot analysis

[7] = tested on: Mast/stem cell growth factor receptor Kit (Homo sapiens), P10721 [UNDEFINED MUTATION]; details: GISTT1, 0.1 uM; remark: listed apart in the source
Description: Inhibition of c-KIT 560 to 578 deletion mutant in human GISTT1 cells assessed as reduction in pS6 phosphorylation at S236 residue at 0.1 uM measured after 2 hrs by Western blot analysis

[8] = tested on: Mast/stem cell growth factor receptor Kit (Homo sapiens), P10721 [UNDEFINED MUTATION]; details: GISTT1, 0.1 uM; remark: listed apart in the source
Description: Inhibition of c-KIT 560 to 578 deletion/T670I mutant in human GISTT1 cells assessed as reduction in AKT phosphorylation at S473 residue at 0.1 uM measured after 2 hrs by Western blot analysis

[9] = tested on: Mast/stem cell growth factor receptor Kit (Homo sapiens), P10721 [UNDEFINED MUTATION]; details: 0.1 uM; remark: listed apart in the source
Description: Inhibition of c-KIT 560 to 578 deletion/T670I mutant in human GIST5R assessed as reduction in pS6 phosphorylation at S235 residue at 0.1 uM measured after 2 hrs by Western blot analysis

[10] = tested on: Mast/stem cell growth factor receptor Kit (Homo sapiens), P10721 [UNDEFINED MUTATION]; details: 0.1 uM; remark: listed apart in the source
Description: Inhibition of c-KIT 560 to 578 deletion/T670I mutant in human GIST5R assessed as reduction in ERK phosphorylation at T202 residue at 0.1 uM measured after 2 hrs by Western blot analysis

[11] = tested on: Mast/stem cell growth factor receptor Kit (Homo sapiens), P10721 [UNDEFINED MUTATION]; details: 0.1 uM; remark: listed apart in the source
Description: Inhibition of c-KIT 560 to 578 deletion/T670I mutant in human GIST5R assessed as reduction in ERK phosphorylation at T204 residue at 0.1 uM measured after 2 hrs by Western blot analysis

Mus musculus [12] = test: Antitumor activity against mouse BAF3(transformed) cells harboring c-KIT T670I mutant implanted in BALB/c nu mouse assessed as tumor growth inhibition administered via oral gavage for 11 days; type: functional
[13] = biological target: Serine/threonine-protein kinase 10 (Homo sapiens) (UniProt O94804); test: Binding affinity to wild-type human partial length LOK (E16 to V314 residues) expressed in bacterial expression system assessed as residual binding level at 1 uM by Kinomescan method relative to control
Chain of Serine/threonine-protein kinase 10 (Homo sapiens) (O94804 whole entry, looked up, the tested form may be a part): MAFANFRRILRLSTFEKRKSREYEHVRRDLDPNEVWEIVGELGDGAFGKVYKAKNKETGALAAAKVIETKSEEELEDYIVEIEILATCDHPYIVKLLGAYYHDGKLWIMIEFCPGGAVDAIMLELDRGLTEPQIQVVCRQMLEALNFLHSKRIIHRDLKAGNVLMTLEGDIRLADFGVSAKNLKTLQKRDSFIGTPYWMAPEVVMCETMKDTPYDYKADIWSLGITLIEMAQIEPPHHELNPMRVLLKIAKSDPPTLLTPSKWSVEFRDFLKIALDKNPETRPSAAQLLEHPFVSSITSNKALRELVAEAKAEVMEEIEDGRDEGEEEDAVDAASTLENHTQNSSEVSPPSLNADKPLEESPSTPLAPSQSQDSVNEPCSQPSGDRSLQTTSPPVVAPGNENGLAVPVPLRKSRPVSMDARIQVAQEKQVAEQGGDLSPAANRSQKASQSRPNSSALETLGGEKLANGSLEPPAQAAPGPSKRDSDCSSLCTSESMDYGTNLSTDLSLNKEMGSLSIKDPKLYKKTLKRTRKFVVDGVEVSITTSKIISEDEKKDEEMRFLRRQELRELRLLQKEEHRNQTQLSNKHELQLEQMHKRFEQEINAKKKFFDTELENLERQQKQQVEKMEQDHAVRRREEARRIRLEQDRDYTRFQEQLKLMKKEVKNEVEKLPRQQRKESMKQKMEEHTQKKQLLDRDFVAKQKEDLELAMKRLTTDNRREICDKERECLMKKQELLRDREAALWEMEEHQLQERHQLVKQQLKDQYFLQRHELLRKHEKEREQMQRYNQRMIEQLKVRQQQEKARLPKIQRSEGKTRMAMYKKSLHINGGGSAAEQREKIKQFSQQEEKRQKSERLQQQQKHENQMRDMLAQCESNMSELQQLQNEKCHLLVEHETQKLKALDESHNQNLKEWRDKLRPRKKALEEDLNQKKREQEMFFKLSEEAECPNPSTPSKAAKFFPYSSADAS

[14] = biological target: Proto-oncogene tyrosine-protein kinase receptor Ret (Homo sapiens, UniProt P07949); test: Inhibition of recombinant human RET cytoplasmic domain (658 to 1114 residues) expressed in baculovirus expression system by Z-lyte assay
Chain of Proto-oncogene tyrosine-protein kinase receptor Ret (P07949 whole entry, the tested form may be a part): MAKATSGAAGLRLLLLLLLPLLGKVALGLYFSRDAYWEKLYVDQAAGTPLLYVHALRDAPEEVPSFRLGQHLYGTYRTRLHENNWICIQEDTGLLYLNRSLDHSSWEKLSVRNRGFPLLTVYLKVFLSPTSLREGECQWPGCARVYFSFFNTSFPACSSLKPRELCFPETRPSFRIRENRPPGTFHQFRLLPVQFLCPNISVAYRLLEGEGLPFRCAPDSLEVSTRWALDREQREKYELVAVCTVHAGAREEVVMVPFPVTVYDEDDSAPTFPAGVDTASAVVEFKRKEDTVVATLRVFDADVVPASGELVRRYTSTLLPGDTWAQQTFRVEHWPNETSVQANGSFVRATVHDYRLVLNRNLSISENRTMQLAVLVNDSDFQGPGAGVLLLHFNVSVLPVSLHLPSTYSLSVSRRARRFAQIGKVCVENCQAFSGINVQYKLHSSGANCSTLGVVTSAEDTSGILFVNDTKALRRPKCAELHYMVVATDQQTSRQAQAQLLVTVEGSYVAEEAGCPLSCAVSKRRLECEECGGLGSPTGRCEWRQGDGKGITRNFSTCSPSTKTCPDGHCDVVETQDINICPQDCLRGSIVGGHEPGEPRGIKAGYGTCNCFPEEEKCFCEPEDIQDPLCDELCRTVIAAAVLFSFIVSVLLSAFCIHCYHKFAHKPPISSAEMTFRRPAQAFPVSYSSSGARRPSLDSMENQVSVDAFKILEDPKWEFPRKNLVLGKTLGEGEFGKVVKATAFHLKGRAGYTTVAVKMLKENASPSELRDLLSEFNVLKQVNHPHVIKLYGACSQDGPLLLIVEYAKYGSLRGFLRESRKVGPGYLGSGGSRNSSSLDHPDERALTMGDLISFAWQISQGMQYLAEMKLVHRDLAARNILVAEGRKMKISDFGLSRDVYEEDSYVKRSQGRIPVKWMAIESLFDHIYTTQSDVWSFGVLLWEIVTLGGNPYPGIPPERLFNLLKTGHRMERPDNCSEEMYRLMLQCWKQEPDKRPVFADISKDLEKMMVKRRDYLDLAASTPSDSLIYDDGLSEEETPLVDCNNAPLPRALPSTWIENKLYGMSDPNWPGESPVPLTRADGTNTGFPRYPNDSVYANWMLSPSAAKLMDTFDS

[15] = biological target: Epithelial discoidin domain-containing receptor 1 (Mus musculus) (UniProt Q03146); test: Inhibition of DDR1 in mouse BAF3(transformed) cells assessed as growth inhibition after 72 hrs by CCK8 assay
Chain of Epithelial discoidin domain-containing receptor 1 (Mus musculus) (Q03146 whole entry, the tested form may be a part): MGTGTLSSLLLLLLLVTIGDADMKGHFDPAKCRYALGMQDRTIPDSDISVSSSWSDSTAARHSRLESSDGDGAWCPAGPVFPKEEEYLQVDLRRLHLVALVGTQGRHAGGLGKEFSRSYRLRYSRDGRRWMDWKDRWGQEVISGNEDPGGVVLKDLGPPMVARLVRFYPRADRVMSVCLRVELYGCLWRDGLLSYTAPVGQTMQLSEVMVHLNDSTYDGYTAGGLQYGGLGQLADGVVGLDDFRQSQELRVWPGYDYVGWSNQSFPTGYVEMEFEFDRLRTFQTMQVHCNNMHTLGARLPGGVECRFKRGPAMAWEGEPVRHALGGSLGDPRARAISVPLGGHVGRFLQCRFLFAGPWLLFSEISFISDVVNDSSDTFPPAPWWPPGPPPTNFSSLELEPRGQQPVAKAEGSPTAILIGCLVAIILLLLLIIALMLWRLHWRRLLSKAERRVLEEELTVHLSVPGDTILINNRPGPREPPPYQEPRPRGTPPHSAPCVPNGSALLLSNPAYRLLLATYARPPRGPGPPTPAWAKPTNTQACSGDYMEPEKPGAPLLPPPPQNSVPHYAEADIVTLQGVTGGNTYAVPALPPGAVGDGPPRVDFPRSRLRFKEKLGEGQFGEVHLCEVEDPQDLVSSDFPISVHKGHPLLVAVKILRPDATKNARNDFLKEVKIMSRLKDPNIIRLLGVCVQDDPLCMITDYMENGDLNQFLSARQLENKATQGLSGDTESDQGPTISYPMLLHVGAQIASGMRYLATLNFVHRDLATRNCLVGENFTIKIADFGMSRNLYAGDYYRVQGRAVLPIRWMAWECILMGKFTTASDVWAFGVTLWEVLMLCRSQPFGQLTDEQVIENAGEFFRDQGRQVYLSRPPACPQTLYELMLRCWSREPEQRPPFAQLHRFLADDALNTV

[16] = biological target: Platelet-derived growth factor receptor alpha (Mus musculus) (UniProt P26618); test: Inhibition of PDGFRA in mouse BAF3(transformed) cells assessed as growth inhibition after 72 hrs by CCK8 assay
[17] = biological target: T1, Mast/stem cell growth factor receptor Kit (Homo sapiens, UniProt P10721, 560-578DEL); type: cell-based, GISTT1
T1 sequence (P10721 whole entry, looked up, stated change not applied): as the sequence (P10721 whole entry, looked up, change not shown) above

[18] = biological target: T1, Mast/stem cell growth factor receptor Kit; type: cell-based, GISTT1; remark: listed apart in the source
[19] = biological target: T2, Mast/stem cell growth factor receptor Kit (Homo sapiens, UniProt P10721, 560-578DEL/T670I); type: cell-based, GISTT1
T2 sequence (P10721 whole entry, looked up, stated change not applied): as the sequence (P10721 whole entry, looked up, change not shown) above

[20] = biological target: T2, Mast/stem cell growth factor receptor Kit; type: cell-based
[21] = biological target: T1, Mast/stem cell growth factor receptor Kit; type: cell-based, GISTT1; remark: listed apart in the source
[22] = biological target: T2, Mast/stem cell growth factor receptor Kit; type: cell-based, GISTT1; remark: listed apart in the source
[23] = biological target: T2, Mast/stem cell growth factor receptor Kit; type: cell-based, GISTT1; remark: listed apart in the source
[24] = biological target: T2, Mast/stem cell growth factor receptor Kit; type: cell-based, GISTT1; remark: listed apart in the source
[25] = biological target: RAC-alpha serine/threonine-protein kinase (Homo sapiens) (UniProt P31749); type: cell-based
GISTT1 [26] = type: functional, cell-based; details: Homo sapiens
GISTT1 [27] = type: functional, cell-based; details: Homo sapiens; remark: listed apart in the source
GISTT1 [28] = type: functional, cell-based; details: Homo sapiens; remark: listed apart in the source
GISTT1 [29] = type: functional, cell-based; details: Homo sapiens; remark: listed apart in the source
GISTT1 [30] = type: functional, cell-based; details: Homo sapiens; remark: listed apart in the source
Homo sapiens [31] = species on record: Homo sapiens; type: functional, cell-based
[32] = AUC (0 to t) in Sprague-Dawley rat at 1 mg/kg, iv by LC-MS/MS analysis; type: ADME, organism-based; details: in vivo
[33] = AUC (0 to t) in mouse at 1 mg/kg, iv by LC-MS/MS analysis; type: ADME, organism-based; details: in vivo
[34] = AUC (0 to t) in mouse at 10 mg/kg, po by LC-MS/MS analysis; type: ADME, organism-based; details: in vivo
[35] = AUC (0 to t) in Beagle dog at 1 mg/kg, iv by LC-MS/MS analysis; type: ADME, organism-based, Canis lupus familiaris; details: in vivo
[36] = Cmax in Beagle dog at 1 mg/kg, iv by LC-MS/MS analysis; type: ADME, organism-based, Canis lupus familiaris; design: dose 1 mg/kg, route intravenous; details: in vivo
[37] = Half life in Beagle dog at 5 mg/kg, po by LC-MS/MS analysis; type: ADME, organism-based, Canis lupus familiaris; details: in vivo
[38] = Cmax in Beagle dog at 5 mg/kg, po by LC-MS/MS analysis; type: ADME, organism-based, Canis lupus familiaris; design: dose 5 mg/kg, route oral; details: in vivo
[39] = Oral bioavailability in Beagle dog at 5 mg/kg by LC-MS/MS analysis; type: ADME, organism-based, Canis lupus familiaris; details: in vivo
Mus musculus [40] = type: functional, organism-based; details: BALB/c, 80 mg/kg, TDE = time-dependent effect
Mus musculus [41] = type: functional, organism-based; details: BALB/c, 80 mg/kg, TDE = time-dependent effect; remark: listed apart in the source
Mus musculus [42] = type: functional, organism-based; details: BALB/c, 80 mg/kg, TDE = time-dependent effect; remark: listed apart in the source
Mus musculus [43] = type: functional, organism-based; details: BALB/c, 80 mg/kg
Mus musculus [44] = type: functional, organism-based; details: BALB/c, 80 mg/kg; remark: listed apart in the source
Mus musculus [45] = type: functional, organism-based; details: BALB/c, 80 mg/kg; remark: listed apart in the source
[46] = Antitumor activity against mouse BAF3(transformed) cells harboring c-KIT T670I mutant implanted in BALB/c nu mouse assessed as tumor growth inhibition at 100 mg/kg/day, po administered via gavage for 11 days relative to control; type: functional; details: 264 h, read-out: TGI
[47] = Antitumor activity against mouse BAF3(transformed) cells harboring c-KIT D820G mutant implanted in BALB/c nu mouse assessed as tumor growth inhibition at 40 mg/kg/day, po administered via gavage for 9 days relative to control; type: functional; details: 216 h, read-out: TGI
[48] = Antitumor activity against mouse BAF3(transformed) cells harboring c-KIT Y823D mutant implanted in BALB/c nu mouse assessed as tumor growth inhibition at 40 mg/kg/day, po administered via gavage for 9 days relative to control; type: functional; details: 216 h, read-out: TGI
GISTT1 [49] = type: functional, Homo sapiens; details: Mus musculus, GISTT1, po, 672 h; read-out: TGI
GISTT1 [50] = type: functional, Homo sapiens; details: Mus musculus, GISTT1, po, 672 h; read-out: TGI; remark: listed apart in the source
GISTT1 [51] = type: functional, Homo sapiens
Homo sapiens [52] = type: functional; details: 20 mg/kg
Homo sapiens [53] = type: functional; details: 40 mg/kg
GISTT1 [54] = type: functional, cell-based; details: Homo sapiens; remark: listed apart in the source
GISTT1 [55] = type: functional, cell-based; details: Homo sapiens; remark: listed apart in the source
Homo sapiens [56] = type: functional, cell-based; remark: listed apart in the source
[57] = tested on: Mast/stem cell growth factor receptor Kit (Homo sapiens), P10721 [V559A]; details: Mus musculus
Chain of Mast/stem cell growth factor receptor Kit (Homo sapiens), P10721 [V559A] (P10721 whole entry V559A): as the sequence (P10721 whole entry, looked up, change not shown) above, with V559A counted along it
Description: Inhibition of c-KIT V559A mutant in mouse BAF3(transformed) cells assessed as growth inhibition after 72 hrs by CCK8 assay

[58] = tested on: Mast/stem cell growth factor receptor Kit (Homo sapiens), P10721 [UNDEFINED MUTATION]
Description: Inhibition of c-KIT 560 to 578 deletion/T670I mutant in human GIST5R cells assessed as growth inhibition after 72 hrs by CCK8 assay

Chain of RAC-alpha serine/threonine-protein kinase (Homo sapiens) (P31749 whole entry): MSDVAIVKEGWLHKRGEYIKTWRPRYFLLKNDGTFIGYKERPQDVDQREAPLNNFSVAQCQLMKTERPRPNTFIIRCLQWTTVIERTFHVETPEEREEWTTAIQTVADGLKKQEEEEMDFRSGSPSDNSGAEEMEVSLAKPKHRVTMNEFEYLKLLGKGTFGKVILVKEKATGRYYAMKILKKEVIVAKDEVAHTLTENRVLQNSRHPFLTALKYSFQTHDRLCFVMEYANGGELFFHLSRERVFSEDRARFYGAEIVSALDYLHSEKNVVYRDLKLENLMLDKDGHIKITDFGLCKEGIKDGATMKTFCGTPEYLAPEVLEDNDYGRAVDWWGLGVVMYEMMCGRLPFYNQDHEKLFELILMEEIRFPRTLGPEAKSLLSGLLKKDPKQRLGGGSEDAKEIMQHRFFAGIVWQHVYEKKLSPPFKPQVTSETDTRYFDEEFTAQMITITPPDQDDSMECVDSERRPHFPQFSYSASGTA

What does the source list for `CCN(CC)CCNC(=O)c1c(C)[nH]c(/C=C2\C(=O)Nc3ccc(F)cc32)c1C` [SUNITINIB]?
inhibition [1]: Active; inhibition [2]: inactive; inhibition [3]: Active; inhibition [4]: Active; inhibition [5]: Active; inhibition [6]: Active; inhibition [7]: Active; inhibition [8]: Active; inhibition [9]: Active; inhibition [10]: Active; inhibition [11]: Active

Which TGI (Mus musculus [12]) does the source give for `COc1cc2nccc(Oc3ccc(NC(=O)Cc4ccc(Cl)c(C(F)(F)F)c4)cc3)c2cc1OC` here?
Its TGI is “Dose-dependent effect”.

And the Activity [13]?
The Activity was < 1%.

And the IC50 [14]?
The IC50 was 34 nM.

And the GI50 [15]?
Its GI50 is > 1000 nM.

What about the GI50 [16] of the same molecule?
The GI50 was 1 nM.

What about the EC50 [17] of the same molecule?
The EC50 was < 100 nM.

What about the EC50 [18] of the same molecule?
Its EC50 is < 100 nM.

And the EC50 [19]?
Its EC50 is < 100 nM.

What about the EC50 [20] of the same molecule?
Its EC50 is < 100 nM.

And the EC50 [21]?
Its EC50 is < 100 nM.

What about the EC50 [22] of the same molecule?
The EC50 was < 100 nM.

What about the EC50 [23] of the same molecule?
Its EC50 is < 100 nM.

And the EC50 [24]?
The EC50 was < 100 nM.

What about the inhibition [25] of the same molecule?
Its inhibition is “Active”.

What about the Activity (GISTT1 [26]) of the same molecule?
The Activity was “Dose-dependent effect”.

What about the Activity (GISTT1 [27]) of the same molecule?
Its Activity is “Dose-dependent effect”.

And the Activity (GISTT1 [28])?
The Activity was “Dose-dependent effect”.

What about the Activity (GISTT1 [29]) of the same molecule?
Its Activity is “Dose-dependent effect”.

What about the Activity (GISTT1 [30]) of the same molecule?
Its Activity is “Dose-dependent effect”.

And the Activity (Homo sapiens [31])?
Its Activity is “Dose-dependent effect”.

What about the AUC(0-t) [32] of the same molecule?
The AUC(0-t) was 2550 ng·h/mL.

What about the AUC(0-t) [33] of the same molecule?
The AUC(0-t) was 2990 ng·h/mL.

And the AUC(0-t) [34]?
Its AUC(0-t) is 12600 ng·h/mL.

What about the AUC(0-t) [35] of the same molecule?
Its AUC(0-t) is 5320 ng·h/mL.

What about the Cmax [36] of the same molecule?
The Cmax was 1110 ng/mL.

And the half-life [37]?
Its half-life is 19.4 h.

What about the Cmax [38] of the same molecule?
The Cmax was 1160 ng/mL.

And the bioavailability [39]?
Its bioavailability is 81%.

What about the inhibition (Mus musculus [40]) of the same molecule?
Its inhibition is “Tde”.

What about the inhibition (Mus musculus [41]) of the same molecule?
The inhibition was “Tde”.

What about the inhibition (Mus musculus [42]) of the same molecule?
The inhibition was “Tde”.

What about the inhibition (Mus musculus [43]) of the same molecule?
The inhibition was “inactive”.

What about the inhibition (Mus musculus [44]) of the same molecule?
Its inhibition is “inactive”.

What about the inhibition (Mus musculus [45]) of the same molecule?
Its inhibition is “inactive”.

What about the inhibition in vivo at 100 mg/kg/day [46] of the same molecule?
Its inhibition in vivo at 100 mg/kg/day is 100%.

What about the inhibition in vivo at 40 mg/kg/day [47] of the same molecule?
The inhibition in vivo at 40 mg/kg/day was 88.9%.

What about the inhibition in vivo at 40 mg/kg/day [48] of the same molecule?
The inhibition in vivo at 40 mg/kg/day was 81.8%.

What about the inhibition in vivo at 20 mg/kg/day (GISTT1 [49]) of the same molecule?
Its inhibition in vivo at 20 mg/kg/day is 95.6%.

And the inhibition in vivo at 40 mg/kg/day (GISTT1 [50])?
The inhibition in vivo at 40 mg/kg/day was 96.9%.

And the Activity (GISTT1 [51])?
Its Activity is 0.2 g.

What about the TGI (Homo sapiens [52]) of the same molecule?
Its TGI is “Dose-dependent effect”.

And the TGI (Homo sapiens [53])?
The TGI was “Dose-dependent effect”.

What about the TGI (GISTT1 [54]) of the same molecule?
The TGI was “Dose-dependent effect”.

What about the TGI (GISTT1 [55]) of the same molecule?
Its TGI is “Dose-dependent effect”.

And the TGI (Homo sapiens [56])?
Its TGI is “Dose-dependent effect”.

And the GI50 [57]?
The GI50 was 21 nM.

What about the GI50 [58] of the same molecule?
The GI50 was 73 nM.

— ChEMBL document CHEMBL4359837, “Discovery of 2-(4-Chloro-3-(trifluoromethyl)phenyl)-N-(4-((6,7-dimethoxyquinolin-4-yl)oxy)phenyl)acetamide (CHMFL-KIT-64) as a Novel Orally Available Potent Inhibitor against Broad-Spectrum Mutants of c-KIT Kinase for Gastrointestinal Stromal Tumors” (J Med Chem, 2019)
